Measured values: PubChem BioAssay AID1628 (Sanford-Burnham Center for Chemical Genomics, 2009)
Where “and” joins values, the source holds several entries; their conditions need not be identical. Equal values may be shown once.

System: MIN6 insulin promoter GFP reporter, high-content imaging
Experiment: decrease of insulin promoter-GFP reporter – imaging, high-content screening, mouse beta cells (AID 1628);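 further: potency for lowering insulin promoter GFP signal so compounds are inhibitors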

IC50: 2.63 µM and 1.62 µM
Structure (SMILES): CN(C)c1ccnc2c[cH-]cc12.[Fe].c1ccc(-[c-]2[c-](-c3ccccc3)[c-](-c3ccccc3)[c-](-c3ccccc3)[c-]2-c2ccccc2)cc1 (stereo unspecified)
